Consider ten molecules from PubChem BioAssay AID1918931 (Molecular Pharmacology Branch, DTP, NCI, 2023).

“And” between values parts separate entries of the source, which are not always exact repeats. Equal entries are not always repeated.

The assay concerns 138582-337-R-J1-PDC complex spheroid viability. The assay can be described thus: Anticancer human tumor 138582-337-R-J1-PDC patient-derived Merkel cell tumor cell line growth inhibition. The conditions noted are these: for viability, T/C: stronger effect = lower value; for IC50: curve of compound. From the text: Multicellular complex tumor spheroid response to LSD1 Inhibitor Iadademstat in combination with a variety of drugs and investigational agents in selected tumor cell lines
The current study was undertaken to assess response to LSD1 inhibitors in combination with standard-of-care drugs and investigational agents in solid tumor complex spheroid models as well as in the K-562 leukemia. Complex spheroids include a stromal component modeled by human endothelial cells (HUVEC) and fibroblasts modeled by human mesenchymal stem cells (MSCs). The concentration ranges selected for each drug and investigational agent were based upon clinically achievable concentrations if the clinical Cmax of the agent was known.
Compounds. The drugs and investigational agents used in this study are listed on Table 1. All of the agents used, including staurosporine (NSC755774) and gemcitabine (NSC613327), were obtained from the Developmental Therapeutics Program, NCI. FDA-approved anticancer drugs are available from the NCI at http://dtp.nci.nih.gov/branches/dscb/oncology_drugset_explanation.html. Drugs and investigational agents were >95% pure by proton nuclear magnetic resonance (NMR) and liquid chromatography/mass spectrometry (LC/MS). Stock solutions were prepared at 400x in DMSO, stored at -70 degrees C, and diluted in fresh medium prior to their use. The final concentration of DMSO in cell culture wells never exceeded 0.25% (v/v). The FDA-approved anticancer drug set is available from the Developmental Therapeutics Program at https://dtp.cancer.gov/organization/dscb/obtaining/available_plates.htm. All drugs and investigational agents were tested over a range starting from a high concentration at or near the clinical Cmax and decreasing in half-log increments. If the clinical Cmax for an agent had not been determined, the highest concentration tested was 10 microM.
Cell Lines. The patient-derived cancer cell (PDC) lines: 292921-168-R-J2-PDC, K24384-001-R-PDC, and 521955-158-R2-J5-PDC pancreatic carcinomas, 556581-035-R-J1 ovarian carcinoma, 324938-238-R-J1-PDC, 855422-203-R-J1-PDC and 883617-216-R-J1-PDC urothelial bladder carcinomas, 743489-274-T-PDC renal cell carcinoma, 138582-R-J1 Merkel cell tumor, K60290-347-R-J1 and K57222-313-R-J1-PDC glioblastomas, 653999-131-R-J2-PDC, LG0703-F948-PDC, and 349418-098-R-PDC non-small cell lung carcinomas, 885512-296-R-J2-PDC, 171881-019-R-J1-PDC breast carcinomas and 186277-243-T-J2-PDC and 233499-124-R-J2-PDC colon carcinomas were obtained from the NCI Patient-Derived Models Repository (PDMR, https://pdmr.cancer.gov). The established cell lines NCI/ADR-RES (RRID:CVCL_14520 and OVCAR-5 (RRID:CVCL_1628) ovarian carcinomas, 786-O (RRID:CVCL_1051) and A498 (RRID:CVCL_A498) renal cell carcinoma, NCI-H211 (ATCC, cat. CRL-5824; RRID:CVCL_1529), NCI-H196 (ATCC, cat. CRL-5823, RRID:CVCL_1509), SW 1271 (ATCC, cat. CRL-2177, RRID:CVCL_1716) and NCI-H1876 (ATCC, cat. CRL-5902, RRID:CVCL_1503) small cell lung carcinomas, MDA-MB-231 (RRID:CVCL_0062) and MDA-MB-468 (RRID:CVCL_0419)breast carcinomas (10-12). Pooled donor human umbilical vein endothelial cells (HUVEC, Lonza, cat. CC-2519) and human mesenchymal stem cells (hMSC, Lonza, cat. PT-2501) were purchased from Lonza (Walkersville, MD).
Cell Culture. All cells were maintained in an incubator at 37 degrees C and 5% CO2 with 95% humidity. The PDC lines were cultured according to standard operating procedures established by the NCI PDMR (https://pdmr.cancer.gov). Briefly all PDCs were thawed and cultured in Matrigel-coated flasks prepared with a working solution of 1X Ham's F-12 nutrient mix, without supplementation (Invitrogen, Waltham, MA, cat. 11765054), 100 U/mL penicillin-streptomycin (Invitrogen, cat. 15140122), and 2.5% Matrigel (Corning Inc., Corning, NY, cat. 354248) for the first three passages. […]
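Further: spheroids exposed to agents for 7 days.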
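Wherever viability, T/C is given: 100% = DMSO vehicle control viability.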

On to `CC(C)CC(NC(=O)C(Cc1ccccc1)NC(=O)c1cnccn1)B(O)O` (configuration not stated), for which the IC50 is 0.922 nM and 0.463 nM. Further, the viability, T/C (compound 0.000316 µM) is 116% and 74.5%. The viability, T/C (compound 0.00316 µM) was 0.75% and 0.32%. For the same molecule, the viability, T/C (compound 0.01 µM) was 0.21% and 0.23%. For the setting “compound 0.0316 µM”, the viability, T/C is 0.25% and 0.21%. Further, for the setting “compound 0.1 µM”, the viability, T/C is 0.37% and 0.28%.

For the molecule `CC(C)CC(NC(=O)CNC(=O)c1cc(Cl)ccc1Cl)B1OC(=O)CC(CC(=O)O)(C(=O)O)O1` (configuration not stated), the IC50 is 7.41 nM and 8.3 nM. In addition, for the setting “compound 0.000316 µM”, the viability, T/C was 105% and 94.4%. Besides, the viability, T/C (compound 0.001 µM) was 102% and 99.3%. Besides, the viability, T/C (compound 0.00316 µM) was 110% and 91.3%. For the same molecule, the viability, T/C (compound 0.01 µM) was 30.4% and 42.1%. Further, under “compound 0.0316 µM”, the viability, T/C was 4.94% and 1.75%. Moreover, the viability, T/C (compound 0.1 µM) was 0.38% and 0.44%.

On to `CC1(C)CCC(CN2CCN(c3ccc(C(=O)NS(=O)(=O)c4ccc(NCC5CCOCC5)c([N+](=O)[O-])c4)c(Oc4cnc5[nH]ccc5c4)c3)CC2)=C(c2ccc(Cl)cc2)C1`, for which the IC50 was > 10000 nM and 3560 nM. Also, the viability, T/C (compound 0.0316 µM) was 95.7% and 61.2%. Also, the viability, T/C (compound 0.1 µM) was 95.8% and 70.4%. For the same molecule, for the setting “compound 0.316 µM”, the viability, T/C was 89.5% and 69.6%. Besides, the viability, T/C (compound 1 µM) is 101% and 73.5%. Further, for the setting “compound 3.16 µM”, the viability, T/C is 101% and 55.5%.

As for `CC1COCCN1c1cc(-c2ccnn2C)c2ccnc(-c3ccn[nH]3)c2n1` (configuration not stated), the viability, T/C runs as follows: (compound 0.00316 µM) 76.4% and 67.9%; (compound 0.01 µM) 86.4% and 64.7%; (compound 0.0316 µM) 69.7% and 48.6%; (compound 0.1 µM) 61% and 34.3%; (compound 0.316 µM) 61% and 28.5%; (compound 1 µM) 39.8% and 25.1%.

`CC1COCCN1c1cc(C2(S(C)(=N)=O)CC2)nc(-c2ccnc3[nH]ccc23)n1` (configuration not stated): the concentration for half-maximal inhibition (IC50) is 8040 nM and 2070 nM. Also, the viability, T/C (compound 0.0316 µM) is 91.2% and 97.8%. In addition, the viability, T/C (compound 0.1 µM) is 85.4% and 99.9%. Besides, the viability, T/C (compound 0.316 µM) is 88.4% and 81.3%. Also, the viability, T/C (compound 1 µM) is 83.1% and 59.1%. In addition, the viability, T/C (compound 3.16 µM) is 68.1% and 46.4%. For the same molecule, for the setting “compound 10 µM”, the viability, T/C is 45.8% and 38.9%.

Regarding `CCN(c1cc(-c2ccc(CN3CCOCC3)cc2)cc(C(=O)NCc2c(C)cc(C)[nH]c2=O)c1C)C1CCOCC1`, the half-maximal inhibitory concentration (IC50) is > 3000 nM. Besides, the viability, T/C (compound 0.00949 µM) was 86.8% and 93.2%. Besides, for the setting “compound 0.03 µM”, the viability, T/C is 103% and 81.7%. Besides, the viability, T/C (compound 0.0949 µM) was 82.1% and 70.6%. For the same molecule, the viability, T/C (compound 0.3 µM) is 95.9% and 76.5%. In addition, the viability, T/C (compound 0.949 µM) was 95.5% and 69.7%. For the same molecule, the viability, T/C (compound 3 µM) was 99.3% and 57.8%.

With `CC[C@@]1(O)C(=O)OCc2c1cc1n(c2=O)Cc2cc3c(CN(C)C)c(O)ccc3nc2-1`, the 50% inhibitory concentration (IC50) is > 100 nM. The viability, T/C (compound 0.000316 µM) is 91% and 92.2%. Besides, the viability, T/C (compound 0.001 µM) was 103% and 101%. For the same molecule, the viability, T/C (compound 0.00316 µM) is 77.7% and 62.7%. Also, the viability, T/C (compound 0.01 µM) is 83.7% and 57.4%. Also, the viability, T/C (compound 0.0316 µM) was 95% and 57.3%. In addition, the viability, T/C (compound 0.1 µM) was 85.6% and 47.7%.

For the molecule `CCc1c2c(nc3ccc(O)cc13)-c1cc3c(c(=O)n1C2)COC(=O)[C@]3(O)CC`, the IC50 is 8.76 nM and < 0.949 nM. Also, the viability, T/C (compound 0.000949 µM) was 71.5% and 50.2%. The viability, T/C (compound 0.003 µM) was 68.2% and 39%. Also, the viability, T/C (compound 0.00949 µM) was 48.7% and 26.2%. Also, the viability, T/C (compound 0.03 µM) is 11.6% and 0.27%. Besides, the viability, T/C (compound 0.0949 µM) is 0.5% and 0.83%. Under “compound 0.3 µM”, the viability, T/C was 0.52% and 0.33%.

On to `COc1cc(C2c3cc4c(cc3C(OC3OC5COC(C)OC5C(O)C3O)C3COC(=O)C23)OCO4)cc(OC)c1O` (configuration not stated), for which the half-inhibitory concentration (IC50) was > 3000 nM and 359 nM. Besides, the viability, T/C (compound 0.00949 µM) is 81.8% and 78.6%. In addition, the viability, T/C (compound 0.03 µM) was 73.6% and 82.9%. Besides, the viability, T/C (compound 0.0949 µM) was 78% and 57.8%. Further, the viability, T/C (compound 0.3 µM) was 77.3% and 50.9%. The viability, T/C (compound 0.949 µM) was 73.4% and 48.3%. Moreover, where the note is “compound 3 µM”, the viability, T/C is 74.7% and 34.3%.

As for `COc1cc(Nc2ncc3c(n2)-c2ccc(Cl)cc2C(c2c(F)cccc2OC)=NC3)ccc1C(=O)O`, the IC50 is > 1000 nM. Besides, the viability, T/C (compound 0.00316 µM) is 102% and 63.7%. Further, the viability, T/C (compound 0.01 µM) is 82.4% and 67.3%. Where the note is “compound 0.0316 µM”, the viability, T/C was 76.8% and 63.6%. Also, the viability, T/C (compound 0.1 µM) was 84.4% and 66.4%. Besides, under “compound 0.316 µM”, the viability, T/C is 79.4% and 61.6%. Moreover, the viability, T/C (compound 1 µM) was 80.4% and 43.7%.
